What was measured:
IDO1 [1] = molecular target: T1, IDO1 (Homo sapiens, UniProt P14902); assay: Hela cell-based IDO1 assay; conditions: Hela cells
In short: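 Kynurenine was measured at 480 nm in trichloroacetic acid-deproteinised supernatant after adding 2% 4-(dimethylamino)benzaldehyde. This supernatant came from HeLa cells seeded at 8000 per well in 96-well plates in phenol red-free DMEM with 10% FBS and, from 4 hours after seeding, exposed for 48 hours at 37 °C, 5% CO2 to DMSO-diluted compound dilutions, IFN-γ (final 100 ng/mL) and 0.4 mM L-Trp. The resulting data were fitted with a four-parameter logistic model in XLfit. Potency was taken from those fits.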

IDO1 [2] = molecular target: T1, IDO1; assay: IDO1 enzymatic assay; format: biochemical; set-up: His tag (N); made in house; host or cells: E. coli; conditions: read-out: Enzyme IC50 IDO1
In short: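 Compound was incubated with 50 nM His-tagged IDO1 from E. coli, 1.3 mM D-tryptophan, 5 mM L-ascorbic acid, methylene blue and 0.4 mg/mL catalase in 50 mM potassium phosphate pH 7.5, 0.1% BSA, at 24 °C for 1.5 hours. Activity was the slope of N'-formylkynurenine formation read continuously at 321 nm for 1 hour. IC50 was obtained from remaining activity versus compound concentration.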

[3] = molecular target: T2, cellular TDO2 in HEK293-TDO2 cells (Homo sapiens, UniProt P48775); assay: 293-TDO2 cell-based assay (Kyn colorimetric); conditions: 48 hours of incubation
T2 construct: expressed in transfected cells; host or cells: HEK293 (ATCC), stably transfected
In short: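 HEK293 cells stably expressing TDO2 (10000/well, phenol red-free DMEM, 10% FBS) were dosed 4 h after plating and incubated 48 h at 37° C. Supernatant Kyn was measured after TCA precipitation by 4-(dimethylamino)benzaldehyde colour at 480 nm. IC50 came from four-parameter logistic fits.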

T1 sequence (P14902 whole entry): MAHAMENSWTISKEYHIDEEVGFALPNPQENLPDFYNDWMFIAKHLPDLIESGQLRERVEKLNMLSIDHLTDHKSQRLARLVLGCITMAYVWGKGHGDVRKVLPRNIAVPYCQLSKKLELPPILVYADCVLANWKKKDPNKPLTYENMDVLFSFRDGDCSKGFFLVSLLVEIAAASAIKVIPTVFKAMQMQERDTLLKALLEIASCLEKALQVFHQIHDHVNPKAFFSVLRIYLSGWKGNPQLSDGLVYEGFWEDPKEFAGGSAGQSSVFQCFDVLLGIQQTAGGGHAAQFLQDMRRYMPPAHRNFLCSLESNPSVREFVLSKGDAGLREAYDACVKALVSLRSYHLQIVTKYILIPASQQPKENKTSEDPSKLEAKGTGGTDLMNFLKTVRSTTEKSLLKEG
T2 sequence (P48775 whole entry): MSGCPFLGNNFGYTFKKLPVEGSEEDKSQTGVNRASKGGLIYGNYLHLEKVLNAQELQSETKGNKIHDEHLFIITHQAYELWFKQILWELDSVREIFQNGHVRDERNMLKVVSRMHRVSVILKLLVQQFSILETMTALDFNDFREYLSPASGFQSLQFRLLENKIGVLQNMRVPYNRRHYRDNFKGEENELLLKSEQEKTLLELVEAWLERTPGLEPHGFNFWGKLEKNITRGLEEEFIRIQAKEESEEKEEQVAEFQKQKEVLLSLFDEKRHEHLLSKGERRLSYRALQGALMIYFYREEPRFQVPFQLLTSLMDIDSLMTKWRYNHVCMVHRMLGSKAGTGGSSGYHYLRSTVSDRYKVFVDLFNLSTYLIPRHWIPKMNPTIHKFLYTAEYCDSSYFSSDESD

Row | SMILES | EC50 (IDO1 [1]) [nM] | IC50 (IDO1 [2]) [nM] | EC50 [3] [µM]
1 | O[C@@H](c1c(C2CC2)ccn2cncc12)[C@H]1CC[C@H](c2ccc(F)cc2)CC1 (single isomer, unassigned) [Example C107b] | > 10000 | 5100 | > 10
2 | O[C@@H](c1c(C2CC2)ccn2cncc12)[C@H]1CC[C@H](c2ccc(OC(F)(F)F)cc2)CC1 (single isomer, unassigned) [Example C105b] | > 10000 | 2000 | > 10
3 | O[C@@H](c1c(C2CC2)ccn2cncc12)[C@H]1CC[C@H](c2ccc(OC3CCCC3)cc2)CC1 (single isomer, unassigned) [Example C118b] | > 10000 | 3000 | > 10
4 | NC(=O)c1ccc([C@H]2CC[C@H]([C@H](O)c3c(C4CC4)ccn4cncc34)CC2)cc1 [Example C124] | 236 | 56 | > 10
5 | N#Cc1ccc(N2CCC(C(O)c3c(C4CC4)ccn4cncc34)CC2)cc1 (stereo not drawn) [Example C144, 4-(4-((7-cyclopropylimidazo[1,5-a]pyridin-8-yl)(hydroxy)methyl)piperidin-1-yl)benzonitrile] | 748 | 40 | > 10
6 | OC(c1c(C2CC2)ccn2cncc12)C1CCN(c2ccc(F)c3ncccc23)CC1 (single isomer, unassigned) [Example C149b] | 2910 | 2400 | > 10
7 | OC(c1c(C2CC2)ccn2cncc12)C1CCN(c2ccc(F)c3cccnc23)CC1 (stereo not drawn) [Example C155, (7-cyclopropylimidazo[1,5-a]pyridin-8-yl)(1-(5-fluoroquinolin-8-yl)piperidin-4-yl)methanol] | 149 | 61 | > 10
8 | COc1ccc(C2CCC(C(O)c3c(C4CC4)ccn4cncc34)CC2)cc1 (racemic) [Example C101, (7-cyclopropylimidazo[1,5-a]pyridin-8-yl)(4-(4-methoxyphenyl)cyclohexyl)methanol] | 200 | 41 | > 10
9 | N#Cc1ccc(C2CCC(C(O)c3c(C4CC4)ccn4cncc34)CC2)cc1 (racemic) [Example C106, 4-(4-((7-cyclopropylimidazo[1,5-a]pyridin-8-yl)(hydroxy)methyl)cyclohexyl)benzonitrile] | 429 | 50 | > 10
10 | OC(c1c(C2CC2)ccn2cncc12)C1CCC(c2ccc(OC(F)(F)F)cc2)CC1 (racemic) [Example C105] | 2010 | 210 | > 10
11 | OC(c1c(C2CC2)ccn2cncc12)C1CCN(c2ccnc3ccccc23)CC1 (stereo not drawn) [Example C150, (7-cyclopropylimidazo[1,5-a]pyridin-8-yl)(1-(quinolin-4-yl)piperidin-4-yl)methanol] | 1510 | 160 | > 10
12 | OC(c1c(C2CC2)ccn2cncc12)C1CCC(c2cccc3ccccc23)CC1 (stereo not drawn) [Example C121, (7-cyclopropylimidazo[1,5-a]pyridin-8-yl)(4-(naphthalen-1-yl)cyclohexyl)methanol] | 125 | 94 | > 10
13 | OC(c1c(C2CC2)ccn2cncc12)C1CCN(c2ccc(Cl)c3ncccc23)CC1 (single isomer, unassigned) [Example C154b] | 6450 | 2900 | > 10
14 | O[C@@H](c1c(C2CC2)ccn2cncc12)[C@H]1CC[C@H](c2ccccc2C(F)(F)F)CC1 (single isomer, unassigned) [Example C116b] | > 10000 | 5400 | > 10
15 | OC(c1c(C2CC2)ccn2cncc12)C1CCC(c2ccc(OC3CCCC3)cc2)CC1 (stereo not drawn) [Example C118, (4-(4-(cyclopentyloxy)phenyl)cyclohexyl)(7-cyclopropylimidazo[1,5-a]pyridin-8-yl)methanol] | 259 | 120 | > 10
16 | O[C@@H](c1c(C2CC2)ccn2cncc12)[C@H]1CC[C@H](c2ccc(F)c(Cl)c2)CC1 (single isomer, unassigned) [Example C132b] | > 10000 | 2500 | > 10
17 | COc1ccccc1[C@H]1CC[C@H]([C@@H](O)c2c(C3CC3)ccn3cncc23)CC1 (single isomer, unassigned) [Example C113b] | > 10000 | 8200 | > 10

Further lines, results first:

Row | EC50 (IDO1 [1]) [nM] | IC50 (IDO1 [2]) [nM] | EC50 [3] [µM] | SMILES
18 | 364 | 61 | > 10 | OC(c1c(C2CC2)ccc2cncn12)C1CCC(c2ccc3ccsc3c2)CC1 (stereo not drawn) [Example D134, (4-(benzo[b]thiophen-6-yl)cyclohexyl)(6-cyclopropylimidazo[1,5-a]pyridin-5-yl)methanol]
19 | 5110 | 1400 | > 10 | O[C@H](c1c(C2CC2)ccc2cncn12)[C@H]1CC[C@@H](c2ccc(OC3CCOCC3)cc2)CC1 [Example D114d, (S)-(6-cyclopropylimidazo[1,5-a]pyridin-5-yl)((1 s,4R)-4-(4-((tetrahydro-2H-pyran-4-yl)oxy)phenyl)cyclohexyl)methanol]
20 | 75 | 31 | > 10 | OC(c1c(C2CC2)ccc2cncn12)C1CCC(c2ccc3ncccc3c2)CC1 (stereo not drawn) [Example D157, (6-cyclopropylimidazo[1,5-a]pyridin-5-yl)(4-(quinolin-6-yl)cyclohexyl)methanol]
21 | 260 | 41 | > 10 | OC(c1c(C2CC2)ccc2cncn12)C1CCC(c2ccc(Cl)c(F)c2)CC1 (stereo not drawn) [Example D128, (4-(4-chloro-3-fluorophenyl)cyclohexyl)(6-cyclopropylimidazo[1,5-a]pyridin-5-yl)methanol]
22 | 1100 | 1400 | > 10 | O[C@@H](c1c(C2CC2)ccc2cncn12)[C@H]1CC[C@H](c2ccnc3ccc(F)cc32)CC1 (single isomer, unassigned) [Example D150b]
23 | 3970 | 2600 | > 10 | OC(c1c(C2CC2)ccc2cncn12)[C@H]1CC[C@H](c2ccc(OC3CCOCC3)cc2)CC1 (single isomer, unassigned) [Example D114b]
24 | > 10000 | 1700 | > 10 | Oc1ccccc1[C@H]1CC[C@H]([C@@H](O)c2c(C3CC3)ccc3cncn23)CC1 (single isomer, unassigned) [Example D112b]
25 | 1020 | 31 | > 10 | OC(c1c(C2CC2)ccc2cncn12)C1CCN(c2ccc3ncncc3c2)CC1 (stereo not drawn) [Example D181, (6-cyclopropylimidazo[1,5-a]pyridin-5-yl)(1-(quinazolin-6-yl)piperidin-4-yl)methanol]
26 | 606 | 73 | > 10 | O=C(Nc1ccc(C2CCC(C(O)c3c(C4CC4)ccc4cncn34)CC2)cc1)OCc1ccccc1 (stereo not drawn) [Example D121]
27 | 470 | 25 | > 10 | O=C(O)c1ccc(C2CCC(C(O)c3c(C4CC4)ccc4cncn34)CC2)cc1 (stereo not drawn) [Example D111, 4-(4-((6-cyclopropylimidazo[1,5-a]pyridin-5-yl)(hydroxy)methyl)cyclohexyl)benzoic acid]
28 | 275 | 48 | > 10 | OC(c1c(C2CC2)ccc2cncn12)C1CCC(c2ccccc2Cl)CC1 (stereo not drawn) [Example D117]
29 | 43 | 21 | > 10 | OC(c1c(C2CC2)ccc2cncn12)C1CCN(c2ccccc2)CC1 (stereo not drawn) [Example D170, (6-cycloropylimidazo[1,5-a]pyridin-5-yl)(1-phenylpiperidin-4-yl)methanol]
30 | 109 | 25 | > 10 | Cn1cc(-c2ccc(N3CCC(C(O)c4c(C5CC5)ccc5cncn45)CC3)cc2)cn1 (stereo not drawn) [Example D176, (6-cyclopropylimidazo[1,5-a]pyridin-5-yl)(1-(4-(1-methyl-1H-pyrazol-4-yl)phenyl)piperidin-4-yl)methanol]
31 | 2790 | 9800 | > 10 | CC(C)c1ccc2cncn2c1[C@H](O)[C@H]1CC[C@H](c2cccc(F)c2)CC1 (single isomer, unassigned) [Example D167b]
32 | 206 | 39 | > 10 | OC(c1c(C2CC2)ccc2cncn12)C1CCC(c2ccc(OC3COC3)cc2)CC1 (stereo not drawn) [Example D109, (6-cyclopropylimidazo[1,5-a]pyridin-5-yl)(4-(4-(oxetan-3-yloxy)phenyl)cyclohexyl)methanol]
33 | 107 | 25 | > 10 | OCCn1cc(-c2ccc(N3CCC(C(O)c4c(C5CC5)ccc5cncn45)CC3)cc2)cn1 (stereo not drawn) [Example D177]
34 | 275 | 32 | > 10 | OC(c1c(C2CC2)ccc2cncn12)[C@H]1CC[C@H](c2ccc(Cl)cc2F)CC1 (single isomer, unassigned) [Example D131a]
35 | 4570 | 2900 | > 10 | COc1ccc([C@H]2CC[C@H](C(O)c3c(C4CC4)ccc4cncn34)CC2)c(F)c1 (single isomer, unassigned) [Example D146b]

Source: patent US10882856B2 (BeiGene, Ltd., priority 2017, dated 2021)
